Laboratory results from US7998754B2, “In vitro method for the simultaneous detection and identification of antibiotics of different classes and corresponding diagnostic kit” (Unisensor S.A., priority 2005, dated 2011).
Where two headings read alike, the source gives them in different places.

Key:
[1] = target: T1, β-lactame receptor (RSA) (Staphylococcus aureus, UniProt P18357); type: binding; details: milk
T1 construct: made in house
T1 sequence (P18357 331-585 limits assumed): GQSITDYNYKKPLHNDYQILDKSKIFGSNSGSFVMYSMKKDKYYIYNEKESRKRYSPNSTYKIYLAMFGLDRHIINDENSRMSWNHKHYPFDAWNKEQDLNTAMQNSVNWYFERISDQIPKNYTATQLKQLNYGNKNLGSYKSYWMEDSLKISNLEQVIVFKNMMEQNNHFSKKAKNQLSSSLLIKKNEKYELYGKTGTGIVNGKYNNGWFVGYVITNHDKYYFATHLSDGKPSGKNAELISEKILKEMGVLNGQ
Experimental: (§1) This mixture is prepared either as required or lyophilisated for 20 hours. The Recovery System
(§2) The other capture zones are identical but differently positioned, as in FIG. 2.
(§3) A single control zone serves as a reference for the three markers.
(§4) 200 μL of cold milk are incubated at 50° C. in the presence of 50 μl of the reagents prepared and/or lyophilisated as above. After 3 minutes of incubation at 50° C., the above-described recovery element is immersed in the solution. The final interpretation is made after 3 minutes of incubation by means of an optical dipstick reader available at Matest (Germany).
(§5) As a general rule, if the ratio of the intensities of the concerned test signal relative to the control signal is less than or equal to 1, the sample is considered as positive for the parameter (compound) concerned.

[2] = tested on: tetracycline receptor (TetR); assay: Example 2 three-parameter dipstick test in milk, tetracycline capture zone (format 1); type: binding, E. Coli
Experimental: as §1, §2, §3, §4, §5

[3] = tested on: anti-sulfadimethoxin antibody; assay: Example 2 three-parameter dipstick test in milk, sulfadimethoxin capture zone (format 1); type: binding
Experimental: as §1, §2
The preparation is achieved by the procedure described by Dixon-Holland and Katz^(9). 100 mg of sulfadimethoxin and 200 mg of BSA solubilized in 25 ml of a mixture, comprising two parts of a phosphate buffer of 50 mM, pH 7.2 and 1 part of dioxane, are incubated in the presence of 120 μL of 25% glutaraldehyde stirred for 3 hours at 25° C. The solution is then dialysed for 6 days at 4° C. against 100 volumes of a buffer of NaPi 50 mM, pH 7.2 with a change of buffer every 12 hours.
as §3, §4, §5

[4] = target: T1, β-lactame receptor (RSA); type: binding; details: milk; remark: listed apart in the source
Experimental: (§6) The reactive mixture comprises: • 5 parts of β-lactame receptor (RSA) at a concentration of 360 nM; • 10 parts of a monoclonal anti-RSA antibody attached to colloidal gold (OD=10 at 520 nm); • 1 part of biotinylated and diluted anti-sulfadimethoxin in NaPi 50 mM, NaCl 150 mM, pH 7.8; • 10 parts of a dilution of BSA-sulfadimethoxin-gold of 40 nm; • 24 parts of Hepes buffer 120 mM, pH 8, BSA 2%, Dextran 1%, sucrose 5%. This mixture is prepared either as required or lyophilisated for 20 hours. Biotinylation of the Anti-Sulfadimethoxin Antibody
(§7) The recovery system is identical to that of example 1. However, in the present case, it is the biotinylated antisulfamide antibody that will be recovered in the avidine fixed at the second capture point above the control zone.
(§8) 200 μL of cold milk are incubated for 15 minutes at 30° C. in the presence of 50 μL of the reagents prepared above. After this first incubation, the above-described recovery element is immersed in the solution. Final interpretation is made after a second incubation of 15 minutes.

[5] = tested on: biotinylated anti-sulfadimethoxin antibody; assay: Example 3 dipstick test in milk, sulfamide capture zone (format 2); type: binding
Experimental: as §6
825 μL of a solution comprising 5 mg/ml of anti-sulfadimethoxin antibody dialysed in a carbonate buffer 100 mM, pH 9.2 are incubated in the presence of 165 μL of a solution of biotin-LC-NHS at 1.5 mg/ml (available at Perbio, Inc.) for 2 hours at 25° C. sheltered from light. The reaction is blocked by the addition of 10 μL of a solution of a Tris buffer 1M pH 8 for 30 minutes before dialysis 2× for 10 hours against a buffer of NaPi 50 mM, NaCl 150 mM, pH 7.8.
The preparation of BSA-sulfadimethoxin described in example no. 2 is used fixed to particles of colloidal gold in a protocol similar to that described in example no. 1 for preparing the control BSA-gold solution.
as §7, §8

[6] = tested on: tetracycline receptor (TetR); assay: Example 4 dipstick test in meat (pig muscle) extract, tetracycline capture zone (format 2); type: binding, E. Coli
Experimental: (§9) This mixture is either prepared as required or lyophilisated for 20 hours. The Recovery System
(§10) The recovery system is similar to that of example 1. However, in the present case, it is an anti-mouse antibody that forms the first capture point where the monoclonal anti-TetR antibody will be recovered and it is a chicken anti-rabbit antibody that forms the second capture point where the antisulfamide antibody will be recovered.
(§11) 30 ml of a buffer of NaPi 50 mM, pH 8 is added to 10 g of pig muscle and the mixture is mixed with a mixer of type MiniMix (Interscience, F) for 2 minutes. The solution, collected in an Eppendorf tube, is then centrifuged for 1 minute at 6,000 rpm to recover the supernatant from it. 200 μL of supernatant are incubated for 15 minutes at 25° C. in the presence of 50 μL of the reagents prepared above. After this first incubation, the above-described recovery element is immersed in the solution. The final interpretation is made after a second incubation of 15 minutes.

[7] = tested on: antisulfamide rabbit antibody; assay: Example 4 dipstick test in meat (pig muscle) extract, sulfamide capture zone (format 2); type: binding
Experimental: as §9, §10, §11

[8] = target: T1, β-lactame receptor (RSA); type: binding; details: milk; remark: listed apart in the source
Experimental: (§12) This mixture is either prepared as required or lyophilisated for 20 hours.
as §8

[9] = tested on: tetracycline receptor (TetR); assay: Example 5 dipstick test in milk, tetracycline capture zone (format 1); type: binding, E. Coli
Experimental: as §12, §8

[10] = tested on: polyclonal antisulfamide rabbit antibody; assay: Example 5 dipstick test in milk, sulfamide capture zone (format 2); type: binding
Experimental: as §12, §8

COc1cc(NS(=O)(=O)c2ccc(N)cc2)nc(OC)n1 [Sulfadimethoxin]
Ratio of the measurement intensities B/C ([1]; sulfamide 50 ppb): 2.4
Ratio of the measurement intensities B/C ([1]; sulfamide 100 ppb): 2.2
Ratio of the measurement intensities B/C ([1]; sulfamide 150 ppb): 1.9
Ratio of the measurement intensities B/C ([1]; sulfamide 200 ppb): 2.4
Ratio of the measurement intensities T/C ([2]; sulfamide 50 ppb): 1.9
Ratio of the measurement intensities T/C ([2]; sulfamide 100 ppb): 1.9
Ratio of the measurement intensities T/C ([2]; sulfamide 150 ppb): 2.1
Ratio of the measurement intensities T/C ([2]; sulfamide 200 ppb): 2.1
Ratio of the measurement intensities S/C ([3]; ampicillin 4 + tetracycline 75 + sulfamide 100 ppb together): 0.7
Ratio test/control ([3]; at the detection limit concentration): 0.8
Concentration detection limit ([3]; sulfadimethoxin, three-parameter test): 100 ppb
Ratio of the measurement intensities S/C ([3]; sulfamide 50 ppb): 1.3
Ratio of the measurement intensities S/C ([3]; sulfamide 100 ppb): 0.8
Ratio of the measurement intensities S/C ([3]; sulfamide 150 ppb): 0.6
Ratio of the measurement intensities S/C ([3]; sulfamide 200 ppb): 0.4
Ratio of the measurement intensities B/C ([4]; sulfamide 50 ppb): 1.95
Ratio of the measurement intensities B/C ([4]; sulfamide 100 ppb): 1.9
Ratio of the measurement intensities B/C ([4]; sulfamide 150 ppb): 2.2
Ratio of the measurement intensities B/C ([4]; sulfamide 200 ppb): 2.1
Ratio of the measurement intensities S/C ([5]; sulfamide 50 ppb): 2
Ratio of the measurement intensities S/C ([5]; sulfamide 100 ppb): 1
Ratio of the measurement intensities S/C ([5]; sulfamide 150 ppb): 0.85
Ratio of the measurement intensities S/C ([5]; sulfamide 200 ppb): 0.7
Ratio of the measurement intensities S/C ([5]; β-lactame 4 + sulfamide 100 ppb together): 0.95
Ratio of the measurement intensities T/C ([6]; sulfamide 50 ppb): 3.4
Ratio of the measurement intensities T/C ([6]; sulfamide 100 ppb): 3.1
Ratio of the measurement intensities T/C ([6]; sulfamide 150 ppb): 3.4
Ratio of the measurement intensities T/C ([6]; sulfamide 200 ppb): 3
Ratio of the measurement intensities S/C ([7]; sulfamide 50 ppb): 1.6
Ratio of the measurement intensities S/C ([7]; sulfamide 100 ppb): 1
Ratio of the measurement intensities S/C ([7]; sulfamide 150 ppb): 0.85
Ratio of the measurement intensities S/C ([7]; sulfamide 200 ppb): 0.7
Ratio of the measurement intensities S/C ([7]; tetracycline 100 + sulfamide 100 ppb together): 0.95
Ratio of the measurement intensities B/C ([8]; sulfamide 50 ppb): 2.1
Ratio of the measurement intensities B/C ([8]; sulfamide 100 ppb): 1.8
Ratio of the measurement intensities B/C ([8]; sulfamide 200 ppb): 1.8
Ratio of the measurement intensities T/C ([9]; sulfamide 50 ppb): 2.8
Ratio of the measurement intensities T/C ([9]; sulfamide 100 ppb): 2.7
Ratio of the measurement intensities T/C ([9]; sulfamide 200 ppb): 3
Ratio of the measurement intensities S/C ([10]; sulfamide 50 ppb): 1.3
Ratio of the measurement intensities S/C ([10]; sulfamide 100 ppb): 0.9
Ratio of the measurement intensities S/C ([10]; sulfamide 200 ppb): 0.3
Ratio of the measurement intensities S/C ([10]; β-lactame 4 + tetracycline 100 + sulfamide 100 ppb together): 0.8
